Where a name gives a salt, the structure may show the parent alone.
Assay: in vitro
Details: rat, gh3-tre-luc cells, AC50 (uM) modified / 1000

`C#CC(O)C(CC)CCCC` (stereo not shown) [4-Ethyloct-1-yn-3-ol] and `CCCCNCCCC` [N-Butyl-1-butanamine] cannot be ordered by CC50 at 24 h: > 90 µM for the first, > 90 µM for the second.

`c1ccc2c(c1)ccc1ccccc12` [Phenanthrene] and `O=c1c2ccccc2oc2ccccc12` [Xanthone] cannot be ordered by CC50 at 24 h: > 90 µM for the first, > 90 µM for the second.

`CN[C@@H]1[C@@H](O[C@H]2O[C@H](CO)[C@@H](N)[C@H](O)[C@H]2O)O[C@H]2C[C@@H](N)[C@@H](O[C@H]3[C@H](O)[C@@H](O)[C@H](N)C[C@@H]3N)O[C@@H]2[C@@H]1O` [Apramycin] and `OC[C@H]1O[C@H](O[C@]2(CCl)O[C@H](CCl)[C@@H](O)[C@@H]2O)[C@H](O)[C@@H](O)[C@H]1Cl` [Sucralose] cannot be ordered by CC50 at 24 h: > 20 µM for the first, > 90 µM for the second.

`C=CC1(C)OC(=O)N(c2cc(Cl)cc(Cl)c2)C1=O` (stereo not shown) [Vinclozolin] and `O=C1NC(=O)c2cc([N+](=O)[O-])ccc21` [4-Nitrophthalimide] cannot be ordered by CC50 at 24 h: > 90 µM for the first, > 90 µM for the second.

`O=C(O)COc1cc(Cl)c(Cl)cc1Cl` [2,4,5-Trichlorophenoxyacetic acid] and `Cc1cc(Cl)ccc1OC(C)C(=O)O` (stereo not shown) [Mecoprop] cannot be ordered by CC50 at 24 h: > 90 µM for the first, > 90 µM for the second.

`ClC1=C(Cl)C1(Cl)Cl` [Tetrachlorocyclopropene] and `O=C(O)c1nc(Cl)c(Cl)c(Cl)c1Cl` [3,4,5,6-Tetrachloropyridine-2-carboxylic acid] cannot be ordered by CC50 at 24 h: > 90 µM for the first, > 90 µM for the second.

`C[C@H]1NCc2cc(-c3ccc4c(=O)c(C(=O)O)cn(C5CC5)c4c3OC(F)F)ccc21` [Garenoxacin mesylate hydrate] and `CO/N=C1\CN(c2nc3c(cc2F)c(=O)c(C(=O)O)cn3C2CC2)CC1CN` (stereo not shown) [Gemifloxacin mesylate] cannot be ordered by CC50 at 24 h: > 50 µM for the first, > 50 µM for the second.

`CC(=O)c1ccccc1` [Acetophenone] and `CCC(=O)OCc1ccccc1` [Benzyl propanoate] cannot be ordered by CC50 at 24 h: > 90 µM for the first, > 90 µM for the second.

`O=CCCc1ccccc1` [3-Phenylpropanal] and `O=C(O)CNc1ccccc1` [Potassium anilinoacetate] cannot be ordered by CC50 at 24 h: > 90 µM for the first, > 90 µM for the second.

Going from `Nc1ccc2cc(S(=O)(=O)O)cc(O)c2c1` [6-Amino-4-hydroxynaphthalene-2-sulfonic acid] to `COc1ccccc1N=Nc1c(S(=O)(=O)O)cc2cc(S(=O)(=O)O)cc(NC(C)=O)c2c1O` [C.I. Acid Violet 12, disodium salt], the CC50 at 24 h falls from > 90 µM to 36.9 µM.

`NC(=O)c1ncn([C@@H]2O[C@H](CO)[C@@H](O)[C@H]2O)c1N` [Acadesine] and `OC[C@H]1OC(O)[C@H](O)[C@@H](O)[C@@H]1O` (stereo partly drawn) [D-Glucose] cannot be ordered by CC50 at 24 h: > 50 µM for the first, > 90 µM for the second.

`C[C@@H](O)[C@H](N)C(=O)O` [L-Threonine] and `CCOC(C)=O` [Ethyl acetate] cannot be ordered by CC50 at 24 h: > 50 µM for the first, > 90 µM for the second.

`CSc1ccc(C=O)cc1` [4-(Methylthio)benzaldehyde] and `c1ccc2occc2c1` [2,3-Benzofuran] cannot be ordered by CC50 at 24 h: > 90 µM for the first, > 90 µM for the second.

Compared with `Cc1c(C(=O)NN2CCCCC2)nn(-c2ccc(Cl)cc2Cl)c1-c1ccc(Cl)cc1` [Rimonabant], `CN1C(=O)C(O)N=C(c2ccccc2)c2cc(Cl)ccc21` (stereo not shown) [Temazepam] is higher in CC50 at 24 h: 13.9 µM for the first, > 90 µM for the second.

Going from `CCO[Si](CCCS)(OCC)OCC` [3-(Triethoxysilyl)propane-1-thiol] to `CCCCC/C=C\C=C\C(=O)OCC` [Ethyl (2E,4Z)-deca-2,4-dienoate], the CC50 at 24 h falls from > 90 µM to 29.3 µM.

`C[C@]12CC[C@@H]3c4ccc(O)cc4CC[C@H]3[C@@H]1CC[C@@H]2OP(=O)(O)O` [Estradiol phosphate] and `Cc1cccc(C)c1NC(=O)CC12CCCN1CCC2` [Pilsicainide] cannot be ordered by CC50 at 24 h: > 50 µM for the first, > 50 µM for the second.

Going from `CC(=O)O[C@H]1C(=O)[C@@]2(C)[C@H]([C@H](OC(=O)c3ccccc3)[C@]3(O)C[C@H](OC(=O)[C@H](O)[C@@H](NC(=O)c4ccccc4)c4ccccc4)C(C)=C1C3(C)C)[C@]1(OC(C)=O)CO[C@@H]1C[C@@H]2O` [Paclitaxel] to `COc1c(O[C@@H]2O[C@H](CO)[C@@H](O)[C@H](O)[C@H]2O)cc2c(c1OC)-c1ccc(SC)c(=O)cc1[C@@H](NC(C)=O)CC2` [Thiocolchicoside], the CC50 at 24 h rises from 0.25 µM to > 20 µM.

`COC(=O)c1sccc1S(N)(=O)=O` [Methyl 3-sulfamoylthiophene-2-carboxylate] and `COc1cc(C)cc(O)c1` [3-Methoxy-5-methylphenol] cannot be ordered by CC50 at 24 h: > 90 µM for the first, > 90 µM for the second.

`C[C@@H](O)[C@H]1C(=O)N2C(C(=O)O)=C(S[C@@H]3CN[C@H](C(=O)N(C)C)C3)[C@H](C)[C@H]12` [Meropenem] and `CC1(C)CO[C@@H](CC(=O)O)CN1` [SCH 50911] cannot be ordered by CC50 at 24 h: > 50 µM for the first, > 50 µM for the second.

`CCCCCc1ccco1` [2-Pentylfuran] and `CCCc1c(OCCCCc2nnn[nH]2)ccc(C(C)=O)c1O` [Tomelukast] cannot be ordered by CC50 at 24 h: > 60 µM for the first, > 50 µM for the second.

`NCCO` [2-Hydroxyethylammonium formate] and `C=CC(=O)OCCCC` [Butyl acrylate] cannot be ordered by CC50 at 24 h: > 90 µM for the first, > 90 µM for the second.

`COc1ccc(CCN(C)CCCN2CCc3cc(OC)c(OC)cc3CC2=O)cc1OC` [Zatebradine hydrochloride] and `CN(C)CCN1C(=O)c2ccccc2N(C)c2ccccc21` [Dibenzepin hydrochloride] cannot be ordered by CC50 at 24 h: > 50 µM for the first, > 50 µM for the second.

`CC(C)N1C(=O)c2ccccc2C1=O` [N-Isopropylphthalimide] and `Cc1ccc2c(c1)C(=O)OC2=O` [4-Methylphthalic anhydride] cannot be ordered by CC50 at 24 h: > 90 µM for the first, > 90 µM for the second.

`Cc1ccc(C(=O)O)o1` [5-Methyl-2-furancarboxylic acid] and `Cc1c(C(=O)NCCO)[n+]([O-])c2ccccc2[n+]1[O-]` [Olaquindox] cannot be ordered by CC50 at 24 h: > 90 µM for the first, > 50 µM for the second.

Going from `CCCCCCCCOc1ccc(C(=O)c2ccccc2)c(O)c1` [Octabenzone] to `CO/N=C(/C(=O)OC)c1ccccc1CO/N=C(\C)c1cccc(C(F)(F)F)c1` [Trifloxystrobin], the CC50 at 24 h falls from > 90 µM to 36.9 µM.

Compared with `CCCCCCCCCCn1cc[n+](CCCCCCCCCC)c1C` [1,3-Didecyl-2-methylimidazolium chloride], `CCCCCCCCCCCCCCCCOP(=O)([O-])OCC[N+](C)(C)C` [Miltefosine] is higher in CC50 at 24 h: 6.21 µM for the first, > 50 µM for the second.

`O=C(NC(=O)c1c(F)cccc1F)Nc1cc(Cl)c(F)c(Cl)c1F` [Teflubenzuron] and `CCOC(=O)c1ncn2c1CN(C)C(=O)c1c(I)cccc1-2` [Iomazenil] cannot be ordered by CC50 at 24 h: > 80 µM for the first, > 50 µM for the second.

`CCCCN(CCO)CCCC` [2-(Dibutylamino)ethanol] and `CCCCCCCCCCCCCO` [1-Tridecanol] cannot be ordered by CC50 at 24 h: > 90 µM for the first, > 90 µM for the second.

`CCCCC(CC)COC(=O)c1ccc(C(=O)OCC(CC)CCCC)cc1` (stereo not shown) [Bis(2-ethylhexyl) terephthalate] and `C[N+](C)(C)CCOP(=O)(O)OP(=O)([O-])OC[C@H]1O[C@@H](n2ccc(N)nc2=O)[C@H](O)[C@@H]1O` [Citicoline sodium] cannot be ordered by CC50 at 24 h: > 90 µM for the first, > 50 µM for the second.

`C=C(C)C(=O)OCC[N+](C)(C)C` [(2-(Methacryloyloxy)ethyl)trimethylammonium chloride] and `CCOC(=O)NC(O)C(Cl)(Cl)Cl` (stereo not shown) [Carbocloral] cannot be ordered by CC50 at 24 h: 62.4 µM for the first, > 50 µM for the second.

Going from `C/C=C/C=C/CCCCCCCO` [Codlelure] to `CC(C)CNCC(C)C` [Diisobutylamine], the CC50 at 24 h rises from 79.4 µM to > 90 µM.

`Cc1ncc(C[n+]2csc(CCO[P@](=O)(O)OP(=O)(O)O)c2C)c(N)n1` [Cocarboxylase chloride] and `Cc1cc(C)c(C)c(C)c1` [1,2,3,5-Tetramethylbenzene] cannot be ordered by CC50 at 24 h: > 50 µM for the first, > 90 µM for the second.

`OC[C@@H](O)[C@@H](O)[C@H](O)[C@H](O)CO` [D-Mannitol] and `Oc1ccc2c(c1)OCO2` [Sesamol] cannot be ordered by CC50 at 24 h: > 90 µM for the first, > 90 µM for the second.

With `C[C@@H]1CC[C@H]2C(C)(C)C3CC12CC[C@@]3(C)O` (single isomer, unassigned; (+)) [(+)-Cedrol] the CC50 at 24 h was 71.6 µM.

Same assay, conditions: rat, gh3-tre-luc cells, AC50 (uM) modified / 1000, Tox21_110001=Tox21_111098; viability, 1 nM T3 present, 24 h

With `Oc1c(Br)cc(Br)cc1Br` [2,4,6-Tribromophenol] the CC50 at 24 h was > 50 µM.

Same assay, conditions: rat, gh3-tre-luc cells, AC50 (uM) modified / 1000, Tox21_110001=Tox21_111470; viability, 1 nM T3 present, 24 h

In the case of `NC(=O)C[S+]([O-])C(c1ccccc1)c1ccccc1` (stereo not shown) [Modafinil], the CC50 at 24 h is reported as > 50 µM.

Same assay, conditions: rat, gh3-tre-luc cells, AC50 (uM) modified / 1000, Tox21_110001=Tox21_112618; viability, 1 nM T3 present, 24 h

For `CCC(N)Cc1c[nH]c2ccccc12` (stereo not shown) [Etryptamine], the CC50 at 24 h was > 50 µM.

Same assay, conditions: rat, gh3-tre-luc cells, AC50 (uM) modified / 1000, Tox21_110001=Tox21_200241; viability, 1 nM T3 present, 24 h

In the case of `CN(C)CCN(C)C` [N,N,N',N'-Tetramethylethylenediamine], the CC50 at 24 h is reported as > 90 µM.

Same assay, conditions: rat, gh3-tre-luc cells, AC50 (uM) modified / 1000, Tox21_110001=Tox21_200839; viability, 1 nM T3 present, 24 h

In the case of `Cc1ccc2ccccc2c1` [2-Methylnaphthalene], the CC50 at 24 h is reported as > 90 µM.

Same assay, conditions: rat, gh3-tre-luc cells, AC50 (uM) modified / 1000, Tox21_110001=Tox21_200913; viability, 1 nM T3 present, 24 h

With `O=C(O)C(Br)(Br)Br` [Tribromoacetic acid] the CC50 at 24 h was > 90 µM.

Same assay, conditions: rat, gh3-tre-luc cells, AC50 (uM) modified / 1000, Tox21_110001=Tox21_201090; viability, 1 nM T3 present, 24 h

With `CC(=O)C(Cl)Cl` [1,1-Dichloropropanone] the CC50 at 24 h was > 90 µM.

Same assay, conditions: rat, gh3-tre-luc cells, AC50 (uM) modified / 1000, Tox21_110001=Tox21_201273; viability, 1 nM T3 present, 24 h

In the case of `Oc1c(Br)cc(Br)cc1Br` [2,4,6-Tribromophenol], the CC50 at 24 h is reported as > 90 µM.

Same assay, conditions: rat, gh3-tre-luc cells, AC50 (uM) modified / 1000, Tox21_110001=Tox21_201566; viability, 1 nM T3 present, 24 h

For `COc1ccc(C=O)cc1OC` [Veratraldehyde], the CC50 at 24 h was > 90 µM.

Same assay, conditions: rat, gh3-tre-luc cells, AC50 (uM) modified / 1000, Tox21_110001=Tox21_202217; viability, 1 nM T3 present, 24 h

In the case of `CC[N+](=O)[O-]` [Nitroethane], the CC50 at 24 h is reported as > 90 µM.

Same assay, conditions: rat, gh3-tre-luc cells, AC50 (uM) modified / 1000, Tox21_110001=Tox21_301860; viability, 1 nM T3 present, 24 h

For `CC(=O)CC(c1ccc(Cl)cc1)c1c(O)c2ccccc2oc1=O` (stereo not shown) [Coumachlor], the CC50 at 24 h was > 100 µM.

Same assay, conditions: rat, gh3-tre-luc cells, AC50 (uM) modified / 1000, Tox21_110001=Tox21_302231; viability, 1 nM T3 present, 24 h

In the case of `O=c1c2ccccc2c(=O)c2c1cc(Cl)c1[nH]c3c([nH]c12)c(Cl)cc1c(=O)c2ccccc2c(=O)c13` [D&C Blue No. 9], the CC50 at 24 h is reported as > 90 µM.

— article PMC6792352, “Limited Chemical Structural Diversity Found to Modulate Thyroid Hormone Receptor in the Tox21 Chemical Library” (Environmental Health Perspectives, 2019)
